Experimental data: ChEMBL document CHEMBL3885861, “Open TG-GATES”

Species: Rattus norvegicus
Assay: Open TG-GATES - Regimen: Single
Type: toxicity, organism-based, Sprague-Dawley
Design: regimen Single, gender Male, age 6 weeks
Settings: in vivo, po, route gavage; for APTT / Bas / Eos / Fbg / Hb / Ht / Lym / MCH / MCHC / MCV / Mono / Neu / Plat / RBC / Ret / WBC: tissue Blood; for KIDNEY_L / KIDNEY_R / KIDNEY_TOTAL: tissue Kidney; for LIVER: tissue Liver; for ALP / ALT / AST / CRE / DBIL / GLC / IP / K / LDH / Na / PL / RALB / TBIL / TC / TG / TP / gamma-GTP: tissue Plasma
[1] = 0 mg/kg, 3 h, dose level Control
[2] = 0 mg/kg, 6 h, dose level Control
[3] = 0 mg/kg, 9 h, dose level Control
[4] = 0 mg/kg, 24 h, dose level Control

## CN(C)CCC=C1c2ccccc2COc2ccccc21 [DOXEPIN]
[1]
  TERMINAL_BW: 197.6 g
  APTT: 20.9 s
  Bas: 0%
  Eos: 0.8%
  Fbg: 250.4 mg/dL
  Hb: 13.6 g/dL
  Ht: 41.4%
  Lym: 77.4%
  MCH: 21.2 pg
  MCHC: 32.9%
  MCV: 64.4 fL
  Mono: 3.6%
  Neu: 17.4%
  Plat: 123.1 x10_4/uL
  RBC: 644 x10_4/ul
  Ret: 8.4%
  WBC: 93.1 x10_2/uL
  KIDNEY_L: 0.9 g
  KIDNEY_R: 0.9 g
  KIDNEY_TOTAL: 1.8 g
  LIVER: 8.7 g
  ALP: 1553 IU/L
  ALT: 44 IU/L
  AST: 77.8 IU/L
  CRE: 0.2 mg/dL
  DBIL: 0.006 mg/dL
  GLC: 169.4 mg/dL
  IP: 8.4 mg/dL
  K: 4.2 meq/L
  LDH: 84.6 IU/L
  Na: 142.4 meq/L
  PL: 140.8 mg/dL
  RALB: 2.5 g/dL
  TBIL: 0.056 mg/dL
  TC: 74.8 mg/dL
  TG: 58.2 mg/dL
  TP: 5.3 g/dL
  gamma-GTP: 1.2 IU/L
[2]
  TERMINAL_BW: 196 g
  APTT: 17.7 s
  Bas: 0.2%
  Eos: 0.8%
  Fbg: 265.6 mg/dL
  Hb: 13.6 g/dL
  Ht: 41.4%
  Lym: 79.2%
  MCH: 21.8 pg
  MCHC: 32.8%
  MCV: 66.3 fL
  Mono: 3%
  Neu: 16.2%
  Plat: 112.3 x10_4/uL
  RBC: 624.8 x10_4/ul
  Ret: 9.3%
  WBC: 110.1 x10_2/uL
  KIDNEY_L: 0.9 g
  KIDNEY_R: 0.9 g
  KIDNEY_TOTAL: 1.8 g
  LIVER: 8.1 g
  ALP: 1565.4 IU/L
  ALT: 37.4 IU/L
  AST: 77.2 IU/L
  CRE: 0.2 mg/dL
  DBIL: 0.004 mg/dL
  GLC: 158.4 mg/dL
  IP: 8.9 mg/dL
  K: 4.1 meq/L
  LDH: 80.2 IU/L
  Na: 142.6 meq/L
  PL: 143.6 mg/dL
  RALB: 2.4 g/dL
  TBIL: 0.06 mg/dL
  TC: 76.4 mg/dL
  TG: 49.2 mg/dL
  TP: 5.3 g/dL
  gamma-GTP: 1.2 IU/L
[3]
  TERMINAL_BW: 195.7 g
  APTT: 17.2 s
  Bas: 0%
  Eos: 1%
  Fbg: 271.8 mg/dL
  Hb: 13.2 g/dL
  Ht: 39.9%
  Lym: 77.8%
  MCH: 21.5 pg
  MCHC: 32.9%
  MCV: 65.3 fL
  Mono: 2.2%
  Neu: 18.6%
  Plat: 119.3 x10_4/uL
  RBC: 612.4 x10_4/ul
  Ret: 8.9%
  WBC: 87 x10_2/uL
  KIDNEY_L: 0.9 g
  KIDNEY_R: 0.9 g
  KIDNEY_TOTAL: 1.8 g
  LIVER: 7.5 g
  ALP: 1472.4 IU/L
  ALT: 36.6 IU/L
  AST: 71.2 IU/L
  CRE: 0.2 mg/dL
  DBIL: 0 mg/dL
  GLC: 159.2 mg/dL
  IP: 9.7 mg/dL
  K: 3.9 meq/L
  LDH: 95 IU/L
  Na: 143 meq/L
  PL: 125.8 mg/dL
  RALB: 2.4 g/dL
  TBIL: 0.058 mg/dL
  TC: 70.6 mg/dL
  TG: 33.6 mg/dL
  TP: 5.3 g/dL
  gamma-GTP: 1.2 IU/L
[4]
  TERMINAL_BW: 214.2 g
  APTT: 18.6 s
  Bas: 0%
  Eos: 1.2%
  Fbg: 269 mg/dL
  Hb: 13 g/dL
  Ht: 38.8%
  Lym: 76.4%
  MCH: 21.7 pg
  MCHC: 33.5%
  MCV: 64.8 fL
  Mono: 3%
  Neu: 19%
  Plat: 116.4 x10_4/uL
  RBC: 600.2 x10_4/ul
  Ret: 8.1%
  WBC: 94.8 x10_2/uL
  KIDNEY_L: 1 g
  KIDNEY_R: 0.9 g
  KIDNEY_TOTAL: 1.9 g
  ALP: 2073 IU/L
  ALT: 37.8 IU/L
  AST: 75.6 IU/L
  CRE: 0.2 mg/dL
  DBIL: 0.004 mg/dL
  GLC: 173.2 mg/dL
  IP: 7.2 mg/dL
  K: 4 meq/L
  LDH: 106.6 IU/L
  Na: 141.6 meq/L
  PL: 153.8 mg/dL
  RALB: 2.5 g/dL
  TBIL: 0.04 mg/dL
  TC: 80.2 mg/dL
  TG: 89 mg/dL
  TP: 5.6 g/dL
  gamma-GTP: 1 IU/L
100 mg/kg, 3 h, dose level Low
  TERMINAL_BW: 198.2 g
  APTT: 19.4 s
  Bas: 0%
  Eos: 1%
  Fbg: 282.4 mg/dL
  Hb: 13.1 g/dL
  Ht: 39.8%
  Lym: 79.6%
  MCH: 21.2 pg
  MCHC: 32.9%
  MCV: 64.4 fL
  Mono: 3%
  Neu: 16%
  Plat: 113.2 x10_4/uL
  RBC: 619.4 x10_4/ul
  Ret: 8.6%
  WBC: 80.4 x10_2/uL
  KIDNEY_L: 0.9 g
  KIDNEY_R: 0.9 g
  KIDNEY_TOTAL: 1.8 g
  LIVER: 8.6 g
  ALP: 1626.2 IU/L
  ALT: 39.4 IU/L
  AST: 69.2 IU/L
  CRE: 0.2 mg/dL
  DBIL: 0 mg/dL
  GLC: 182 mg/dL
  IP: 8.9 mg/dL
  K: 4.1 meq/L
  LDH: 82 IU/L
  Na: 143.8 meq/L
  PL: 159.6 mg/dL
  RALB: 2.5 g/dL
  TBIL: 0.046 mg/dL
  TC: 83.8 mg/dL
  TG: 57 mg/dL
  TP: 5.4 g/dL
  gamma-GTP: 1 IU/L
100 mg/kg, 6 h, dose level Low
  TERMINAL_BW: 197.6 g
  APTT: 16.2 s
  Bas: 0%
  Eos: 1%
  Fbg: 282.2 mg/dL
  Hb: 13.1 g/dL
  Ht: 40.1%
  Lym: 75.8%
  MCH: 21.7 pg
  MCHC: 32.8%
  MCV: 66.4 fL
  Mono: 2.4%
  Neu: 20.2%
  Plat: 119.3 x10_4/uL
  RBC: 603.6 x10_4/ul
  Ret: 9.7%
  WBC: 94.4 x10_2/uL
  KIDNEY_L: 0.9 g
  KIDNEY_R: 0.9 g
  KIDNEY_TOTAL: 1.8 g
  LIVER: 8.1 g
  ALP: 1532.8 IU/L
  ALT: 37.4 IU/L
  AST: 71.4 IU/L
  CRE: 0.2 mg/dL
  DBIL: 0.004 mg/dL
  GLC: 175.2 mg/dL
  IP: 9.5 mg/dL
  K: 4 meq/L
  LDH: 71.6 IU/L
  Na: 144.6 meq/L
  PL: 140.6 mg/dL
  RALB: 2.5 g/dL
  TBIL: 0.054 mg/dL
  TC: 79.4 mg/dL
  TG: 27.2 mg/dL
  TP: 5.3 g/dL
  gamma-GTP: 1 IU/L
